{"source": "patent US9695155B2", "about": "“Herbicidal substituted pyrimidinyloxy benzene compounds” (E. I. DU PONT DE NEMOURS AND COMPANY, priority 2013, dated 2017)", "test_in_all_cases": "Test E preemergence", "key": {"[1]": {"system": "morningglory", "format": "in vivo, Ipomoea coccinea", "conditions": "for Morningglory plant response rating: scale 0 to 100 (0 no effect, 100 complete control)", "from_the_text": "(§1) Seeds of plant species selected from corn (Zea mays), soybean (Glycine max), velvetleaf (Abutilon theophrasti), lambsquarters (Chenopodium album), wild poinsettia (Euphorbia heterophylla), palmer pigweed (Amaranthus palmeri), waterhemp (common waterhemp, Amaranthus rudis), surinam grass (Brachiaria decumbens), large (Lg) crabgrass (Digitaria sanguinalis), Brazilian crabgrass (Digitaria horizontalis), fall panicum (Panicum dichotomiflorum), giant foxtail (Setaria faberii), green foxtail (Setaria viridis), goosegrass (Eleusine indica), johnsongrass (Sorghum halepense), ragweed (common ragweed, Ambrosia elatior), barnyardgrass (Echinochloa crus-galli), sandbur (southern sandbur, Cenchrus echinatus), arrowleaf sida (Sida rhombifolia), Italian ryegrass (Lolium multiflorum), dayflower (Virginia (VA) dayflower, Commelina virginica), field bindweed (Convolvulus arvensis), morningglory (Ipomoea coccinea), nightshade (eastern black nightshade, Solanum ptycanthum), kochia (Kochia scoparia), yellow nutsedge (Cyperus esculentus), cocklebur (common cocklebur, Xanthium strumarium), smartweed (ladysthumb smartweed, and hairy beggarticks (Bidens pilosa), were planted into a silt loam soil and treated preemergence with test chemicals formulated in a non-phytotoxic solvent mixture which included a surfactant.\n(§2) At the same time, plants from these crop and weed species and also horseweed (Canada horseweed, Conyza canadensis), waterhemp_RES1, (ALS & Triazine resistant common waterhemp, Amaranthus rudis), and waterhemp_RES2, (ALS & HPPD resistant common waterhemp, Amaranthus rudis) were planted in pots containing Redi-Earth® planting medium (Scotts Company, 14111 Scottslawn Road, Marysville, Ohio 43041) comprising spaghnum peat moss, vermiculite, wetting agent and starter nutrients were treated with postemergence applications of test chemicals formulated in the same manner. Plants ranged in height from 2 to 18 cm for postemergence treatments (1- to 4-leaf stage). Treated plants and controls were maintained in a greenhouse for 14 to 21 days, after which time all species were compared to controls and visually evaluated. Plant response ratings, summarized in Table E, are based on a scale of 0 to 100 where 0 is no effect and 100 is complete control. A dash (-) response means no test result."}, "[2]": {"system": "corn", "format": "in vivo, Zea mays", "conditions": "for Corn plant response rating: scale 0 to 100 (0 no effect, 100 complete control)", "from_the_text": "as §1, §2"}, "[3]": {"system": "velvetleaf", "format": "in vivo, Abutilon theophrasti", "conditions": "for Velvetleaf plant response rating: scale 0 to 100 (0 no effect, 100 complete control)", "from_the_text": "as §1, §2"}, "[4]": {"system": "large (Lg) crabgrass", "format": "in vivo, Digitaria sanguinalis", "conditions": "for Crabgrass, Large plant response rating: scale 0 to 100 (0 no effect, 100 complete control)", "from_the_text": "as §1, §2"}, "[5]": {"system": "nightshade", "format": "in vivo, Solanum ptycanthum", "conditions": "for Nightshade plant response rating: scale 0 to 100 (0 no effect, 100 complete control)", "from_the_text": "as §1, §2"}, "[6]": {"system": "palmer pigweed", "format": "in vivo, Amaranthus palmeri", "conditions": "for Pigweed, Palmer plant response rating: scale 0 to 100 (0 no effect, 100 complete control)", "from_the_text": "as §1, §2"}, "[7]": {"system": "ragweed", "format": "in vivo, Ambrosia elatior", "conditions": "for Ragweed plant response rating: scale 0 to 100 (0 no effect, 100 complete control)", "from_the_text": "as §1, §2"}, "[8]": {"system": "barnyardgrass", "format": "in vivo, Echinochloa crus-galli", "conditions": "for Barnyardgrass plant response rating: scale 0 to 100 (0 no effect, 100 complete control)", "from_the_text": "as §1, §2"}, "[9]": {"system": "dayflower", "format": "in vivo, Commelina virginica", "conditions": "for Dayflower, VA plant response rating: scale 0 to 100 (0 no effect, 100 complete control)", "from_the_text": "as §1, §2"}, "[10]": {"system": "soybean", "format": "in vivo, Glycine max", "conditions": "for Soybean plant response rating: scale 0 to 100 (0 no effect, 100 complete control)", "from_the_text": "as §1, §2"}, "[11]": {"conditions": "8 g ai/ha, scale 0 to 100, 0 is no effect, 100 is complete control"}, "[12]": {"conditions": "125 g ai/ha, scale 0 to 100, 0 no effect, 100 complete control"}}, "data": [{"smiles": "Clc1cnc(Oc2ccccc2-n2cc(Br)cn2)nc1", "note": "[Compound 7, 2-[2-(4-bromo-1H-pyrazol-1-yl)phenoxy]-5-chloropyrimidine]", "values": [{"measurement": "Plant response rating, Morningglory", "setting": "[1]; [11]", "result": 0}, {"measurement": "Morningglory plant response rating", "setting": "[1]; 16 g ai/ha", "result": 0}, {"measurement": "Morningglory plant response rating", "setting": "[1]; 31 g ai/ha", "result": 0}, {"measurement": "Morningglory plant response rating", "setting": "[1]; 62 g ai/ha", "result": 0}, {"measurement": "Plant response rating, Morningglory", "setting": "[1]; [12]", "result": 0}, {"measurement": "Plant response rating, Corn", "setting": "[2]; [11]", "result": 0}, {"measurement": "Corn plant response rating", "setting": "[2]; 16 g ai/ha", "result": 0}, {"measurement": "Corn plant response rating", "setting": "[2]; 31 g ai/ha", "result": 0}, {"measurement": "Corn plant response rating", "setting": "[2]; 62 g ai/ha", "result": 0}, {"measurement": "Plant response rating, Corn", "setting": "[2]; [12]", "result": 0}, {"measurement": "Plant response rating, Velvetleaf", "setting": "[3]; [11]", "result": 20}, {"measurement": "Velvetleaf plant response rating", "setting": "[3]; 16 g ai/ha", "result": 50}, {"measurement": "Velvetleaf plant response rating", "setting": "[3]; 31 g ai/ha", "result": 65}, {"measurement": "Velvetleaf plant response rating", "setting": "[3]; 62 g ai/ha", "result": 98}, {"measurement": "Plant response rating, Velvetleaf", "setting": "[3]; [12]", "result": 100}, {"measurement": "Plant response rating, Crabgrass, Large", "setting": "[4]; [11]", "result": 0}, {"measurement": "Crabgrass, Large plant response rating", "setting": "[4]; 16 g ai/ha", "result": 0}, {"measurement": "Crabgrass, Large plant response rating", "setting": "[4]; 31 g ai/ha", "result": 70}, {"measurement": "Crabgrass, Large plant response rating", "setting": "[4]; 62 g ai/ha", "result": 75}, {"measurement": "Plant response rating, Crabgrass, Large", "setting": "[4]; [12]", "result": 98}, {"measurement": "Plant response rating, Nightshade", "setting": "[5]; [11]", "result": 0}, {"measurement": "Nightshade plant response rating", "setting": "[5]; 16 g ai/ha", "result": 65}, {"measurement": "Nightshade plant response rating", "setting": "[5]; 31 g ai/ha", "result": 98}, {"measurement": "Nightshade plant response rating", "setting": "[5]; 62 g ai/ha", "result": 98}, {"measurement": "Plant response rating, Nightshade", "setting": "[5]; [12]", "result": 98}, {"measurement": "Plant response rating, Pigweed, Palmer", "setting": "[6]; [11]", "result": 0}, {"measurement": "Pigweed, Palmer plant response rating", "setting": "[6]; 16 g ai/ha", "result": 95}, {"measurement": "Pigweed, Palmer plant response rating", "setting": "[6]; 31 g ai/ha", "result": 85}, {"measurement": "Pigweed, Palmer plant response rating", "setting": "[6]; 62 g ai/ha", "result": 100}, {"measurement": "Plant response rating, Pigweed, Palmer", "setting": "[6]; [12]", "result": 100}, {"measurement": "Plant response rating, Ragweed", "setting": "[7]; [11]", "result": 0}, {"measurement": "Ragweed plant response rating", "setting": "[7]; 16 g ai/ha", "result": 0}, {"measurement": "Ragweed plant response rating", "setting": "[7]; 31 g ai/ha", "result": 0}, {"measurement": "Ragweed plant response rating", "setting": "[7]; 62 g ai/ha", "result": 0}, {"measurement": "Plant response rating, Ragweed", "setting": "[7]; [12]", "result": 0}, {"measurement": "Plant response rating, Barnyardgrass", "setting": "[8]; 8 g ai/ha, preemergence, scale 0 to 100, 0 is no effect, 100 is complete control", "result": 0}, {"measurement": "Barnyardgrass plant response rating", "setting": "[8]; 16 g ai/ha, preemergence", "result": 0}, {"measurement": "Barnyardgrass plant response rating", "setting": "[8]; 31 g ai/ha, preemergence", "result": 0}, {"measurement": "Plant response rating, Barnyardgrass", "setting": "[8]; Preemergence, 62 g ai/ha, scale 0 to 100, 0 no effect, 100 complete control", "result": 0}, {"measurement": "Plant response rating, Barnyardgrass", "setting": "[8]; preemergence, 125 g ai/ha, scale 0 to 100, 0 no effect, 100 complete control", "result": 0}, {"measurement": "Plant response rating, Dayflower, VA", "setting": "[9]; [11]", "result": 0}, {"measurement": "Dayflower, VA plant response rating", "setting": "[9]; 16 g ai/ha", "result": 0}, {"measurement": "Dayflower, VA plant response rating", "setting": "[9]; 31 g ai/ha", "result": 0}, {"measurement": "Dayflower, VA plant response rating", "setting": "[9]; 62 g ai/ha", "result": 20}, {"measurement": "Plant response rating, Dayflower, VA", "setting": "[9]; [12]", "result": 65}, {"measurement": "Plant response rating, Soybean", "setting": "[10]; [11]", "result": 0}, {"measurement": "Soybean plant response rating", "setting": "[10]; 16 g ai/ha", "result": 0}, {"measurement": "Soybean plant response rating", "setting": "[10]; 31 g ai/ha", "result": 0}, {"measurement": "Soybean plant response rating", "setting": "[10]; 62 g ai/ha", "result": 40}, {"measurement": "Plant response rating, Soybean", "setting": "[10]; [12]", "result": 50}]}]}
